Source: patent US20210220355A1, “ANTITUMOR AGENT FOR ACUTE MYELOID LEUKEMIA” (FUJIFILM Corporation, priority 2018, published 2021)

Key:
[1] = system: FLT3-ITD-expressing 32D cell; assay: inhibitory effect on proliferation of mutant FLT3-expressing 32D cell (intracellular ATP level); type: cell-based; conditions: 72 h, Mutation type FLT3-ITD, day 3, ATP level, read-out: Effect determination (IC50 value class), proliferation
Procedure: (§1) 32D cell line expressing FLT3 gene mutations (FLT3-ITD+D698N, +N676T) found according to the random mutagenesis analysis method was cultured for a predetermined period of time (setting: 37° C. and 5% CO2, steam saturated), and then the cells were plated on a 384-well plate at a cell concentration of 299 cells/well. The random mutagenesis analysis method was carried out according to the following reference document.
(§2) Each of the test substances was dissolved in dimethyl sulfoxide (DMSO) to prepare a DMSO solution containing 20 mmol/L of the test substance. After serially diluting with DMSO and further diluting with a medium containing 10% serum, each of the test substance solutions having a concentration 10 times the final treatment concentration was prepared. […] In addition, a group (a positive control group) in which only DMSO containing no test substance was added to a well in which cells were plated and a group (a negative control group) in which only DMSO containing no test substance was added to a well in which only the medium was added were prepared. On day 3 after adding the test substance solution, the intracellular ATP level was measured with “Cell” ATP Assay reagent Ver. 2 (manufactured by TOYO B-Net Co., Ltd.) to evaluate cell viability.
(§3) The suppression rate was determined by assuming that the amount of luminescence signal in the negative control group corresponded to the suppression of cell viability by 100% and the amount of luminescence signal in the positive control group corresponded to the suppression of cell viability by 0%. […] 3 (manufactured by ITOCHU Techno-Solutions Corporation).

[2] = system: FLT3-ITD+N676T-expressing 32D cell; assay: as above; type: cell-based; conditions: for IC50: 32D, 72 h, Mutation type FLT3-ITD + N676T, day 3, ATP level, read-out: Effect determination (IC50 value class), proliferation
Procedure: as §1, §2, §3

[3] = system: FLT3-ITD+D698N-expressing 32D cell; assay: as above; type: cell-based; conditions: for IC50: 32D, 72 h, Mutation type FLT3-ITD + D698N, day 3, ATP level, read-out: Effect determination (IC50 value class), proliferation
Procedure: as §1, §2, §3

[4] = system: acute myeloid leukemia; assay: BID administration test in a patient with acute myeloid leukemia (bone marrow examination); type: in vivo, human; conditions: one AML patient, 75 mg BID before a meal, day 29 of administration; 55% before administration
Procedure: A patient with acute myeloid leukemia is subjected to the BID administration of Compound A of 25 to 225 mg per administration before having a meal two times a day. A preferred effect (for example, a decrease in the proportion of blast cells in the bone marrow, or a curing effect equal to or higher than PR) is confirmed. The specific doses per administration are 50 mg, 75 mg, 100 mg, or 150 mg. Patients have received chemotherapy with cytarabine, daunorubicin, idarubicin, and the like as preliminary curing, and some patients have not reached CR, CRi, CRp, or PR by preliminary curing. The curing effect is determined by the following criteria. The bone marrow puncture sample is evaluated and determined according to the following criteria. Complete Response (CR): a state in which […], and the neutrophil count and the platelet count are respectively 1,000 counts/μL or more and 100,000 counts/μL or more. Complete Response with incomplete platelet recovery ([…]): a state in which myeloblasts are 5% or less and the neutrophil count is 1,000 counts/μL or more, but the platelet count is 100,000 counts/μL or less. Complete Response with incomplete hematological recovery (CRi): a state in which myeloblasts are 5% or less and there is no blood transfusion dependency, but the neutrophil count is 1,000 counts/μL or less. […]

[5] = system: patients with acute myeloid leukemia; assay: clinical test, repeated QD administration to patients with acute myeloid leukemia (side effects); type: in vivo, human; conditions: AML patients, 10 mg or 20 mg one time a day
[6] = system: FLT3 phosphorylation; assay: plasma inhibitory activity (PIA) test on patient plasma samples; type: cell-based, human
Procedure: For 7 patients (patients 1 to 7) who were repeatedly administered with 10 mg of Compound A1 one time a day or 20 mg one time a day in a clinical test involving patients with acute myeloid leukemia, in-plasma concentrations of Compound A1 were measured before administration and after 4 hours after the administration on day 1, day 8, day 15, and day 22 of the first cycle (one cycle is 28 days) and on day 1 of the second cycle, and on the end day of the administration of Compound A1. In addition, a plasma inhibitory activity (PIA) test (Blood, 2006, Vol. 108, p 3477 to 3483) was carried out using plasma samples from the same patients at the same time points. A graph showing a correlation between the in-plasma concentrations and the PIA test results is shown FIG. 1. In FIG. 1, open circles, open rectangles, open triangles, filled circles, filled triangles, filled rectangles, and cross symbols indicate the results of patients 1 to 7, respectively.

| SMILES | IC50 [1] [nM] | IC50 [2] [nM] | IC50 [3] [nM] | proportion of blast cells in the bone marrow [4] [%] | serious side effects [5] | in-plasma concentration at which the phosphorylation inhibition rate reaches 100% ([6]; based on the regression line of FIG. 1, 7 AML patients given 10 mg or 20 mg one time a day) | in-plasma concentration required to exhibit a remarkable FLT3 phosphorylation inhibition rate ([6]; concluded from PIA test results of FIG. 1) [ng/mL] | inhibitory effect on proliferation, in words ([2]; FLT3-ITD+N676T-expressing 32D cell) | inhibitory effect on proliferation, in words ([3]; FLT3-ITD+D698N-expressing 32D cell, compared with FLT3-ITD-expressing 32D cell) |
| --- | --- | --- | --- | --- | --- | --- | --- | --- | --- |
| CCc1nc(C(N)=O)c(Nc2ccc(N3CCC(N4CCN(C)CC4)CC3)c(OC)c2)nc1NC1CCOCC1 [Gilteritinib, 6-ethyl-3-[3-methoxy-4-[4-(4-methylpiperazin-1-yl)piperidin-1-yl]anilino]-5-(oxan-4-ylamino) pyrazine-2-carboxamide, reference compound] | 1 to 5 | 5 to 10 | 10 to 50 | – | – | – | – | – | – |
| CCCNc1nc(Nc2ccc(C#N)cc2)ncc1C#CCCCNC(=O)[C@H](C)N(C)C(=O)/C=C/CN(C)C [Compound A1, (S,E)-N-(1-((5-(2-((4-cyanophenyl)amino)-4-(propylamino)pyrimidin-5-yl)-4-pentyn-1-yl)amino)-1-oxopropan-2-yl)-4-(dimethylamino)-N-methyl-2-butenamide] | 0.1 to 0.5 | 0.5 to 1 | 0.5 to 1 | 18 | No serious side effects were observed | exceeds 30 ng/mL | ≥ 40 | strong inhibitory effect | strong inhibitory effect |
